From the supplement of paper PMC11208160

experiment: recombinant UMI read abundance after kanamycin selection (control-corrected) (log10(CPM+1)); higher = more efficient recombination; extreme values may be limits of the assay; sequences stand for … in AGTGCAGAGAAAATCGGCCAGTTTTCTCTGCCTGCAGTCCGCATGCCGTGGGACCCCTTGGGTTCTAACCTGTTGCCTAGATTTATGCAGCGGACTGCCTTTCTCCCAAAGTGATAAACCGG…AGGTTGGTTTCACT; site = the 11-nt donor
Procedure, shortened: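 Sequenced counts of recombinant UMIs were turned into CPM, averaged across replicates and scaled with control-derived factors. The reported figure is log10(CPM+1). Those UMIs, each 12 nt long, tagged donor and donor-binding-loop pairs on a plasmid with a promoterless kanamycin gene, screened as a pool in Escherichia coli with IPTG (0.07 mM) plus kanamycin or without selection.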
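Further: IS621 bridge recombinase in Escherichia coli cells against a fixed T5 target plasmid.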

First: GTATGCACATGGACCGGTTTTCCCGGTAATCCGTATTTGTA (site TTATGCACTTA)
Second: GTATGTACATGGACCGGTTTTCCCGGTAATCCGTATTTGTA (site GTATGAACTTA)
The “recombinant UMI read abundance (log10)” value of the first is lower: 0.185 for the first, 1.74 for the second.

Going from “GTATGTACATGGACCGGTTTTCCCGGTAATCCGTATTTGTA (site GTATGCACTTA)” to “GTATGTACATGGACCGGTTTTCCCGGTAATCCGTATTTGTA (site GTATGGACTTA)”, the “recombinant UMI read abundance (log10)” value falls from 1.61 to 0.499.

Going from “GTATGTACATGGACCGGTTTTCCCGGTAATCCGTATTTGTA (site GTATGTACTTA)” to “GTATGTCCATGGACCGGTTTTCCCGGTAATCCGTATTTGAG (site GTATGTCCTCT)”, the “recombinant UMI read abundance (log10)” value falls from 2.09 to 0.428.

First: GTATTAACATGGACCGGTTTTCCCGGTAATCCGTATTTGTG (site GTATTAACTCA)
Second: GTCACGCCATGGACCGGTTTTCCCGGTAATCCGTATTTGTA (site GACACGCCTTA)
The “recombinant UMI read abundance (log10)” value of the first is higher: 2.02 for the first, 0.00466 for the second.

“GTCACGCCATGGACCGGTTTTCCCGGTAATCCGTATTTGTA (site GCCACGCCTTA)” and “GTCACGCCATGGACCGGTTTTCCCGGTAATCCGTATTTGTA (site GGCACGCCTTA)” are within 0.2 log units of each other in “recombinant UMI read abundance (log10)” value: 0 for the first, 0.00905 for the second.

Compared with “GTCACGCCATGGACCGGTTTTCCCGGTAATCCGTATTTGTA (site GTCACGCCTTA)”, “GTCACGGCATGGACCGGTTTTCCCGGTAATCCGTATTTGAA (site GTCACGGCTTT)” is higher in “recombinant UMI read abundance (log10)” value: 0.476 for the first, 1.2 for the second.

First: GTCACGTCATGGACCGGTTTTCCCGGTAATCCGTATTTGCG (site GTCACGTCTCG)
Second: GTCAGGACATGGACCGGTTTTCCCGGTAATCCGTATTTGTC (site GTCAGGACTGA)
The “recombinant UMI read abundance (log10)” value of the first is lower: 2.07 for the first, 2.38 for the second.

Compared with “GTCATGGCATGGACCGGTTTTCCCGGTAATCCGTATTTGAA (site GTCATGGCTTT)”, “GTCCCATCATGGACCGGTTTTCCCGGTAATCCGTATTTGCG (site GTCCCATCTCG)” is lower in “recombinant UMI read abundance (log10)” value: 1.99 for the first, 1.31 for the second.

Going from “GTCCCCACATGGACCGGTTTTCCCGGTAATCCGTATTTGTA (site GTCCCCACTTA)” to “GTCCGACCATGGACCGGTTTTCCCGGTAATCCGTATTTGCA (site GTCCGACCTTG)”, the “recombinant UMI read abundance (log10)” value falls from 1.14 to 0.

First: GTCCGAGCATGGACCGGTTTTCCCGGTAATCCGTATTTGCA (site GTACGAGCTTG)
Second: GTCCGAGCATGGACCGGTTTTCCCGGTAATCCGTATTTGCA (site GTCCGAGCTTG)
The “recombinant UMI read abundance (log10)” value of the first is lower: 0 for the first, 1.59 for the second.

First: GTCCGAGCATGGACCGGTTTTCCCGGTAATCCGTATTTGCA (site GTGCGAGCTTG)
Second: GTCCGAGCATGGACCGGTTTTCCCGGTAATCCGTATTTGCA (site GTTCGAGCTTG)
The “recombinant UMI read abundance (log10)” value of the first is higher: 0.297 for the first, 0 for the second.

Compared with “GTCCTGCCATGGACCGGTTTTCCCGGTAATCCGTATTTGGC (site GTCCTGCCTGC)”, “GTCGAATCATGGACCGGTTTTCCCGGTAATCCGTATTTGGT (site GTCGAATCTAC)” is higher in “recombinant UMI read abundance (log10)” value: 0 for the first, 2.07 for the second.

First: GTCGCCCCATGGACCGGTTTTCCCGGTAATCCGTATTTGGC (site GTCGCCCCTGC)
Second: GTCGCGTCATGGACCGGTTTTCCCGGTAATCCGTATTTGGA (site GTCGCGTCTTC)
The “recombinant UMI read abundance (log10)” value of the first is lower: 0 for the first, 1.24 for the second.

First: GTCGGCCCATGGACCGGTTTTCCCGGTAATCCGTATTTGTG (site GTCGGCCCTCA)
Second: GTCGGGGCATGGACCGGTTTTCCCGGTAATCCGTATTTGTT (site GTCGGGGCTAA)
The “recombinant UMI read abundance (log10)” value of the first is lower: 0.00361 for the first, 0.949 for the second.

For “GTCGTATCATGGACCGGTTTTCCCGGTAATCCGTATTTGTC (site GTCGTATCTGA)”, the “recombinant UMI read abundance (log10)” value was 2.7.
